molecular target: T1, CRTH2 receptor (hCRTH2) (Homo sapiens, UniProt Q9Y5Y4); assay: Radioligand binding assay ([3H]PGD2 competition, membranes of HEK-hCRTH2 cell line); settings: 3.0 nM [3H]PGD2, HEK-hCRTH2 membranes, 60 min, room temperature; read-out: Ki
T1 construct: expressed in transfected cells; host or cells: HEK cells (HEK-hCRTH2 cell line), membranes
T1 sequence (Q9Y5Y4 1-395): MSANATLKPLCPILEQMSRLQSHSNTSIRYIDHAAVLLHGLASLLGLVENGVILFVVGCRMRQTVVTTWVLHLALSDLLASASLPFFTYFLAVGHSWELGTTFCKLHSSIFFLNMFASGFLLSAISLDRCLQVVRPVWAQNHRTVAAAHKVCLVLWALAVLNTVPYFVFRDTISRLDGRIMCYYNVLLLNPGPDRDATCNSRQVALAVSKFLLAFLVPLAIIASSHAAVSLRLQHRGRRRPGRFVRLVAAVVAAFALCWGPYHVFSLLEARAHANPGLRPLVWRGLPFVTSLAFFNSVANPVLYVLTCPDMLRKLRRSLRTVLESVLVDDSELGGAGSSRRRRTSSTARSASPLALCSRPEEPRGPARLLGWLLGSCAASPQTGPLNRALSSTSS
In short: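 Membranes (8-20 μg protein) from HEK cells expressing human CRTH2 were incubated with [3H]PGD2 and competitor in 1% DMSO for 60 min at room temperature. Non-specific binding was defined with excess PGD2. Bound radioactivity was separated by filtration and counted by melt-on scintillation.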

Structure (SMILES)	Ki [nM]
O=C(O)CCCCc1nc2cc(-c3cc(CN4CCc5ccccc54)on3)ccc2c(=O)n1-c1ccc(F)cc1 [Example 106]	≤ 10
O=C(O)CCCCc1nc2cc(-c3cc(Cn4ccccc4=O)on3)ccc2c(=O)n1-c1ccc(F)cc1 [Example 107]	≤ 10
CC(CCCc1nc2cc(C3=NOC(C)(c4nc5ccccc5o4)C3)ccc2c(=O)n1-c1ccc(F)cc1)C(=O)O (stereo not drawn) [Example 108]	≤ 10
CC(CCCc1nc2cc(C3=NOC(C)([C@H](O)c4ccccc4)C3)ccc2c(=O)n1-c1ccc(F)cc1)C(=O)O (stereo partly drawn) [Example 109]	10 to 50
CC(CCCc1nc2cc(C3=NOC(C)([C@@H](O)c4ccccc4)C3)ccc2c(=O)n1-c1ccc(F)cc1)C(=O)O (stereo partly drawn) [Example 110]	10 to 50
O=C(O)CCCCc1nc2cc(-c3cc(Cn4nnc5ccccc54)on3)ccc2c(=O)n1-c1ccc(F)cc1 [Example 111]	≤ 10
N#CC1CC2(CC(c3ccc4c(=O)n(-c5ccc(F)cc5)c(CCCCC(=O)O)nc4c3)=NO2)C1 (stereo not drawn) [Example 112]	≤ 10
CC1(c2ccc(C#N)cc2)CC(c2ccc3c(=O)n(-c4ccc(Cl)cc4)c(CCCCC(=O)O)nc3c2)=NO1 (stereo not drawn) [Example 113]	≤ 10
CC1(c2ccc(C#N)cc2)CC(c2ccc3c(=O)n(-c4ccc(F)cc4)c(CCCCC(=O)O)nc3c2)=NO1 (stereo not drawn) [Example 114]	≤ 10
CC1(c2nc3ccccc3o2)CC(c2ccc3c(=O)n(-c4ccc(Cl)cc4)c(CCCCC(=O)O)nc3c2)=NO1 (stereo not drawn) [Example 116]	≤ 10
CC1(c2ccc(F)c(F)c2)CC(c2ccc3c(=O)n(-c4ccc(F)cc4)c(CCCCC(=O)O)nc3c2)=NO1 (stereo not drawn) [Example 124]	≤ 10
O=C(O)CCCCc1nc2cc(C3=NOC(c4ccccc4)(C(F)(F)F)C3)ccc2c(=O)n1-c1ccc(F)cc1 (stereo not drawn) [Example 127]	10 to 50
C=C(c1ccccc1)c1cc(-c2ccc3c(=O)n(-c4ccc(F)cc4)c(CCCCC(=O)O)nc3c2)no1 [Example 128]	≤ 10
CC(O)(c1cc(-c2ccc3c(=O)n(-c4ccc(F)cc4)c(CCCCC(=O)O)nc3c2)no1)c1ccccc1F (stereo not drawn) [Example 129]	≤ 10
CC(O)(c1cccc(F)c1)c1cc(-c2ccc3c(=O)n(-c4ccc(F)cc4)c(CCCCC(=O)O)nc3c2)no1 (stereo not drawn) [Example 130]	≤ 10
O=C(O)CCCCc1nc2cc(-c3cc(C(O)(c4ccccc4)C(F)(F)F)on3)ccc2c(=O)n1-c1ccc(F)cc1 (stereo not drawn) [Example 131]	10 to 50
CC1(C(O)c2ccc(C#N)cc2)CC(c2ccc3c(=O)n(-c4ccc(F)cc4)c(CCCCC(=O)O)nc3c2)=NO1 (stereo not drawn) [Example 132]	10 to 50
CC(c1ccccc1)c1cc(-c2ccc3c(=O)n(-c4ccc(F)cc4)c(CCCCC(=O)O)nc3c2)no1 (stereo not drawn) [Example 133]	≤ 10
C[C@@]1([C@H](O)c2cccc(C#N)c2)CC(c2ccc3c(=O)n(-c4ccc(F)cc4)c(CCCCC(=O)O)nc3c2)=NO1 [Example 136]	≤ 10
C[C@@]1([C@@H](O)c2cccc(C#N)c2)CC(c2ccc3c(=O)n(-c4ccc(F)cc4)c(CCCCC(=O)O)nc3c2)=NO1 [Example 137]	≤ 10
C[C@]1([C@H](O)c2cccc(C#N)c2)CC(c2ccc3c(=O)n(-c4ccc(F)cc4)c(CCCCC(=O)O)nc3c2)=NO1 [Example 138]	10 to 50
O=C(O)CCCCc1nc2cc(C3=NOC4(CCc5ccccc54)C3)ccc2c(=O)n1-c1ccc(F)cc1 (stereo not drawn) [Example 143]	10 to 50
O=C(O)CCCCc1nc2cc(C3=NOC4(CCc5c(F)cccc54)C3)ccc2c(=O)n1-c1ccc(F)cc1 (stereo not drawn) [Example 144]	10 to 50
O=C(O)CCCCc1nc2cc(C3=NOC4(C3)Cc3ccccc3C4)ccc2c(=O)n1-c1ccc(F)cc1 [Example 145]	≤ 10
CO[C@@H](c1ccccc1)c1cc(-c2ccc3c(=O)n(-c4ccc(F)cc4)c(C(C)CCCC(=O)O)nc3c2)no1 (stereo partly drawn) [Example 146]	10 to 50
CO[C@@H](c1ccccc1)c1cc(-c2ccc3c(=O)n(-c4ccc(F)cc4)c(CCCCC(=O)O)nc3c2)no1 [Example 147]	≤ 10

Structure (SMILES)	Ki [nM]
CO[C@H](c1ccccc1)c1cc(-c2ccc3c(=O)n(-c4ccc(F)cc4)c(C(C)CCCC(=O)O)nc3c2)no1 (stereo partly drawn) [Example 148]	≤ 10
CO[C@H](c1ccccc1)c1cc(-c2ccc3c(=O)n(-c4ccc(F)cc4)c(CCCCC(=O)O)nc3c2)no1 [Example 149]	≤ 10
O=C(O)CCCCc1nc2cc(C3=NOC(c4nc5ccc(Cl)cc5o4)C3)ccc2c(=O)n1-c1ccc(F)cc1 (stereo not drawn) [Example 150]	≤ 10
O=C(O)CCCCc1nc2cc(C3=NOC(c4nc5ccc(Cl)cc5s4)C3)ccc2c(=O)n1-c1ccc(F)cc1 (stereo not drawn) [Example 151]	≤ 10
O=C(O)CCCCc1nc2cc(C3=NO[C@H](c4nc5ccc(Cl)cc5o4)C3)ccc2c(=O)n1-c1ccc(F)cc1 [Example 152]	10 to 50
O=C(O)CCCCc1nc2cc(C3=NO[C@@H](c4nc5ccc(Cl)cc5o4)C3)ccc2c(=O)n1-c1ccc(F)cc1 [Example 153]	≤ 10
O=C(O)CCCCc1nc2cc(C3=NO[C@H](c4nc5ccc(Cl)cc5s4)C3)ccc2c(=O)n1-c1ccc(F)cc1 [Example 154]	≤ 10
O=C(O)CCCCc1nc2cc(C3=NO[C@@H](c4nc5ccc(Cl)cc5s4)C3)ccc2c(=O)n1-c1ccc(F)cc1 [Example 155]	≤ 10
O=C(O)C1CC(Cc2nc3cc(-c4cc(Cc5ccc(F)cc5)on4)ccc3c(=O)n2-c2ccc(F)cc2)C1 (stereo not drawn) [Example 156]	10 to 50
O=C(O)CCCCc1nc2cc(-c3cc(-c4ccc(Br)cc4)on3)ccc2c(=O)n1-c1ccc(F)cc1 [Example 157]	10 to 50
CC1(c2nc3ccc(Cl)cc3o2)CC(c2ccc3c(=O)n(-c4ccc(F)cc4)c(CCCCC(=O)O)nc3c2)=NO1 (stereo not drawn) [Example 158]	≤ 10
CC1(c2nc3cc(Cl)ccc3o2)CC(c2ccc3c(=O)n(-c4ccc(F)cc4)c(CCCCC(=O)O)nc3c2)=NO1 (stereo not drawn) [Example 159]	≤ 10
CC1(c2nc3ccccc3[nH]2)CC(c2ccc3c(=O)n(-c4ccc(F)cc4)c(CCCCC(=O)O)nc3c2)=NO1 (stereo not drawn) [Example 160]	≤ 10
CC1(c2nc3cc(F)ccc3o2)CC(c2ccc3c(=O)n(-c4ccc(F)cc4)c(CCCCC(=O)O)nc3c2)=NO1 (stereo not drawn) [Example 161]	≤ 10
CC1(c2nc3ccccn3c2Cl)CC(c2ccc3c(=O)n(-c4ccc(F)cc4)c(CCCCC(=O)O)nc3c2)=NO1 (stereo not drawn) [Example 162]	≤ 10
C[C@@]1(c2nc3cc(F)ccc3o2)CC(c2ccc3c(=O)n(-c4ccc(F)cc4)c(CCCCC(=O)O)nc3c2)=NO1 [Example 163]	≤ 10
C[C@]1(c2nc3cc(F)ccc3o2)CC(c2ccc3c(=O)n(-c4ccc(F)cc4)c(CCCCC(=O)O)nc3c2)=NO1 [Example 164]	10 to 50
CC1(C(=O)Nc2cc(Cl)c(Cl)cc2O)CC(c2ccc3c(=O)n(-c4ccc(F)cc4)c(CCCCC(=O)O)nc3c2)=NO1 (stereo not drawn) [Example 165]	10 to 50
CC1(C(=O)Nc2cc(F)ccc2O)CC(c2ccc3c(=O)n(-c4ccc(F)cc4)c(CCCCC(=O)O)nc3c2)=NO1 (stereo not drawn) [Example 166]	≤ 10
C[C@@]1(c2nc3ccccn3c2Cl)CC(c2ccc3c(=O)n(-c4ccc(F)cc4)c(CCCCC(=O)O)nc3c2)=NO1 [Example 167]	≤ 10
CC1(c2nc3ccc(F)cc3o2)CC(c2ccc3c(=O)n(-c4ccc(F)cc4)c(CCCCC(=O)O)nc3c2)=NO1 (stereo not drawn) [Example 169]	≤ 10
CC1(c2cn3ccccc3n2)CC(c2ccc3c(=O)n(-c4ccc(F)cc4)c(CCCCC(=O)O)nc3c2)=NO1 (stereo not drawn) [Example 171]	≤ 10
C[C@]1(c2nc3ccc(Cl)cc3o2)CC(c2ccc3c(=O)n(-c4ccc(F)cc4)c(CCCCC(=O)O)nc3c2)=NO1 [Example 172]	≤ 10
CC1(c2nc3ccc(F)cc3[nH]2)CC(c2ccc3c(=O)n(-c4ccc(F)cc4)c(CCCCC(=O)O)nc3c2)=NO1 (stereo not drawn) [Example 174]	≤ 10
CC1(c2nc3ccc(Cl)cc3[nH]2)CC(c2ccc3c(=O)n(-c4ccc(F)cc4)c(CCCCC(=O)O)nc3c2)=NO1 (stereo not drawn) [Example 175]	≤ 10
C[C@]1(c2nc3ccccc3[nH]2)CC(c2ccc3c(=O)n(-c4ccc(F)cc4)c(CCCCC(=O)O)nc3c2)=NO1 [Example 176]	≤ 10

same assay, conditions: Ki, 3.0 nM [3H]PGD2, HEK-hCRTH2 membranes, 60 min, room temperature

Structure (SMILES)	Ki [nM]
O=C(O)CCCCc1nc2cc(C3=NOC(c4ccccc4)(c4ccccc4)C3)ccc2c(=O)n1-c1ccc(F)cc1 [Example 117]	10 to 50
CC1(c2cccc(C#N)c2)CC(c2ccc3c(=O)n(-c4ccc(F)cc4)c(CCCCC(=O)O)nc3c2)=NO1 (stereo not drawn) [Example 118]	10 to 50
CC1(c2cccc(C#N)c2)CC(c2ccc3c(=O)n(-c4ccc(F)cc4)c(CCCCC(=O)O)nc3c2)=NO1 (stereo not drawn) [Example 119]	≤ 10
CC1(c2ccc(Cl)cc2)CC(c2ccc3c(=O)n(-c4ccc(F)cc4)c(CCCCC(=O)O)nc3c2)=NO1 (stereo not drawn) [Example 120]	≤ 10
CC1(c2ccc(F)cc2)CC(c2ccc3c(=O)n(-c4ccc(F)cc4)c(CCCCC(=O)O)nc3c2)=NO1 (stereo not drawn) [Example 122]	≤ 10
CC1(c2cc(F)cc(F)c2)CC(c2ccc3c(=O)n(-c4ccc(F)cc4)c(CCCCC(=O)O)nc3c2)=NO1 (stereo not drawn) [Example 125]	≤ 10
CC1(c2cc(F)cc(F)c2)CC(c2ccc3c(=O)n(-c4ccc(F)cc4)c(CCCCC(=O)O)nc3c2)=NO1 (stereo not drawn) [Example 126]	10 to 50
CC1(c2nc3ccccc3s2)CC(c2ccc3c(=O)n(-c4ccc(F)cc4)c(CCCCC(=O)O)nc3c2)=NO1 (stereo not drawn) [Example 170]	≤ 10
